Data taken from paper PMC11219744, “Renal excretion of 1,2-dihydroxynaphthalene (DHN) in firefighting instructors after exposure to polycyclic aromatic hydrocarbons (PAHs) during live fire training” (Scientific Reports, 2024).
“And” between values parts separate entries of the source, which are not always exact repeats. Equal entries are not always repeated. Where two headings read alike, the source gives them in different places.

Columns and labels:
[1] = Time to peak and initial elimination half-life of the urinary biomarkers (first-order model, linear mixed effects); format: in vivo, human; settings: for half-life: male, human, in vivo, initial elimination half-life after peak excretion, urine, read-out: Estimated half-life, mean (converted); for Time to peak, median / Time to peak, range: urinary excretion, time after onset of exposure
Source text: The initial half-life of each biomarker was estimated using statistical methods described previously[6],[32]. In short, we estimated the first-order elimination rate constant λ based on the model in Eq. (1):1 C=C0+B·e^λ·t+∈
Here, C is the creatinine-adjusted concentration in urine after the uptake phase, C0 is the baseline concentration before training, B is the difference from peak to baseline concentration, t is the time since peak concentration, and ϵ is the error term. […] Using package nlme[33] for the statistical environment R[34],[35], the model was fitted as a linear mixed effects model for the log concentration difference to baseline ln(C–C0) as the outcome. The model was fitted simultaneously for all data and included fixed effects for biomarker, time since peak, and their interaction term. It used random slopes for time since peak and random intercepts for […]. Errors were assumed to be autocorrelated according to an AR(1) process.

[2] = Human biomonitoring: urinary excretion of PAH metabolites (GC–MS/MS, creatinine-normalised) in firefighting instructors before and after live fire training; settings: for Median increase in morning urine after exposure (sampling 9) vs. before (sampling 1) / concentration at 6 h: male, human, in vivo; for Median increase in morning urine after exposure (sampling 9) vs. before (sampling 1): 18 h; for Median increase from baseline (sample 2) to peak excretion: peak: sample 5 for 1-PYR, sample 4 otherwise; for concentration at 6 h: Concentration in urine, sampling 6, corresponding to end of shift
Experimental: All study participants (n = 6) were male firefighting instructors from Germany. […] Before the start of the study, all subjects declared that they were non-smokers. Tattoo bearers were excluded before the start of the study as tattoo ink can be a potential source of polycyclic aromatic hydrocarbons. The authors declare that this research was conducted in accordance with the relevant regulations, including the Declaration of Helsinki. All subjects gave written informed consent after being informed about the study by the investigator.
Exposure to combustion products took place in several training sessions that simulated live fire conditions by burning a defined number of uncoated chipboards in an overseas container. The container was located in a hall with exhaust air purification. […] In addition, all subjects wore long-sleeved undergarments under their turnout gear. Only laundered clothing and cleaned equipment (e.g. helmets, masks) were used. The donning and doffing of clothing and protective equipment took place only in a smoke-free, well-ventilated area. Immediately after taking off the firefighters' gloves after training, the participants put on nitrile gloves for further undressing. After removing the helmet, flash hood and SCBA face shield, the participants put on particle filtering half masks (FFP3) to remove contaminated turnout jackets and trousers. After a break for rehydration and cool down still wearing their undergarments, the participants went to shower. […] The interval between two consecutive training sessions for each subject was at least six days. […] In this way, each subject was biomonitored at each of the five training sessions. All additional (unscheduled) urinations between the predefined times were also collected in separate containers and pooled afterwards with the next scheduled sample. […] A total of 270 samples were to be collected using this procedure for all participants and five training sessions of each individual. Subjects completed a questionnaire for each sampling period to account for possible pre-exposure or concurrent exposure to PAHs from sources other than the fire simulation unit, such as occupational exposure to combustion products, exposure to tobacco smoke (active/passive) and barbecue activities, and consumption of smoked or charbroiled foods.
In brief, the analytes were extracted by liquid–liquid extraction with n-hexane after enzymatic hydrolysis of the urine samples with ß-glucuronidase/arylsulfatase (isolated from helix pomatia) and derivatised by silylation with N-trimethylsilyl-N-methyl trifluoroacetamide afterwards. […] All standards were obtained from LGC-Standards, Wesel, Germany.
DHN in urine was determined referring to a method described in detail by Klotz et al.[29]. […] External calibration with internal standardisation by an isotopically labelled analogue of the target compound was done by analysis of pool urine samples spiked with the glucuronides of DHN and D6-1,2-dihydroxynaphthalene (internal standard) before enzymatic hydrolysis. Both standards are not commercially available and were obtained as a gift from the Institute of Occupational, Social and Environmental Medicine at the University of Erlangen-Nuremberg (Germany). A detailed description of the synthesis of the compounds is given by[26]. […] Up to now, there is no external quality assessment scheme available for DHN.
Urinary creatinine was analysed in the Institute of Clinical Chemistry and Laboratory Medicine of University Medical Centre of the Johannes Gutenberg University Mainz using a photometrical assay based on the method of[30].

[3] = cited from earlier work
[4] = sampling 1, morning urine on training day before exposure (mean −4.2 h from start of exposure), n = 30
[5] = sampling 1, morning urine on training day before exposure, n = 30
[6] = sampling 2, before training (mean −0.4 h), n = 28
[7] = sampling 2, before training, n = 28
[8] = sampling 3, at the end of the training session (mean 2.0 h after start of exposure), n = 26
[9] = sampling 3, at the end of the training session, n = 26
[10] = sampling 4, 1 h after the end of training (mean 3.0 h after start of exposure), n = 25
[11] = sampling 4, 1 h after the end of training, n = 25
[12] = sampling 5, 3 h after the end of training (mean 5.2 h after start of exposure), n = 22
[13] = sampling 5, 3 h after the end of training, n = 22
[14] = sampling 6, 6 h after the end of training (mean 8.1 h after start of exposure), n = 23
[15] = sampling 6, 6 h after the end of training, n = 23
[16] = sampling 7, 9 h after the end of training (mean […] after start of exposure), n = 27
[17] = sampling 7, 9 h after the end of training, n = 27
[18] = sampling 8, right before bedtime (mean 12.7 h after start of exposure), n = 27
[19] = sampling 8, right before bedtime, n = 27
[20] = sampling 9, morning urine the next day, 18 h after training (mean 20.1 h after start of exposure), n = 29
[21] = sampling 9, morning urine the next day, n = 29
[22] = 58 urine samples before onset of exposure, not creatinine-normalised

Oc1ccc2ccc3cccc4ccc1c2c34 [1-PYR, 1-hydroxypyrene]
half-life [1]: 7.7 h
Time to peak, median [1]: 5.3 h
Time to peak, range [1]: 2.5 to 13.9 h
Median increase in morning urine after exposure (sampling 9) vs. before (sampling 1) [2]: 2.8 fold
Median increase from baseline (sample 2) to peak excretion [2]: 7.9 fold
Maximum excretion pre exposure ([2]; pre exposure samplings): 0.22 µg/g creatinine
Concentration in urine, median [2, 4]: 0.06 µg/g creatinine
Concentration in urine, IQR [2, 5]: 0.04–0.08 µg/g creatinine
Concentration in urine, range [2, 5]: 0.03–0.15 µg/g creatinine
Concentration in urine, median [2, 6]: 0.05 µg/g creatinine
Concentration in urine, IQR [2, 7]: 0.03–0.06 µg/g creatinine
Concentration in urine, median [2, 8]: 0.06 µg/g creatinine
Concentration in urine, IQR [2, 9]: 0.04–0.08 µg/g creatinine
Concentration in urine, median [2, 10]: 0.20 µg/g creatinine
Concentration in urine, IQR [2, 11]: 0.14–0.31 µg/g creatinine
Concentration in urine, range [2, 11]: 0.06–1.61 µg/g creatinine
Concentration in urine, median [2, 12]: 0.40 µg/g creatinine
Concentration in urine, IQR [2, 13]: 0.21–0.59 µg/g creatinine
Concentration in urine, range [2, 13]: 0.16–1.88 µg/g creatinine
Concentration in urine, median [2, 14]: 0.29 µg/g creatinine
Concentration in urine, IQR [2, 15]: 0.19–0.42 µg/g creatinine
Concentration in urine, range [2, 15]: 0.10–1.93 µg/g creatinine
Concentration in urine, median [2, 16]: 0.25 µg/g creatinine
Concentration in urine, IQR [2, 17]: 0.16–0.30 µg/g creatinine
Concentration in urine, range [2, 17]: 0.08–1.56 µg/g creatinine
Concentration in urine, median [2, 18]: 0.21 µg/g creatinine
Concentration in urine, IQR [2, 19]: 0.12–0.33 µg/g creatinine
Concentration in urine, range [2, 19]: 0.06–1.06 µg/g creatinine
Concentration in urine, median [2, 20]: 0.17 µg/g creatinine
Concentration in urine, IQR [2, 21]: 0.10–0.25 µg/g creatinine
Concentration in urine, range [2, 21]: 0.05–0.63 µg/g creatinine

Oc1ccc2ccccc2c1O [DHN, 1,2-dihydroxynaphthalene]
Time of peak excretion after the end of the training session ([1]; by scheduled sampling time): 1 h
Time required to reach pre exposure levels again ([1]; from median maximum 134.15 µg/g crea., about 5 half-lives, monophasic elimination assumed): approximately 33 h
half-life [1]: 6.6 h
Time to peak, median [1]: 3.3 h
Time to peak, range [1]: 2.5 to 19.0 h
Urinary level, median ([3]; 20 non-smoking subjects): 4.6 µg/L
Urinary concentration, GM (GSD) ([3]; coke oven workers, n = 28, China): 452 (2.28) µg/l
Urinary concentration, geometric mean ([3]; control group, n = 22 office and hospital workers including three smokers, China): 38.8 µg/L
Urinary concentration, median ([3]; n = 9 smokers): 17.1 µg/L
Urinary concentration, range ([3]; n = 9 smokers): 1.9 to 62 µg/L
Urinary concentration, median (range) ([3]; wood impregnation workers, n = 9, Germany): 88.3 (10.8–1497) µg/l
Urinary concentration, median (range) ([3]; workers at converter infeed, n = 26, Germany): 945.4 (22.0–1902.6) µg/l
Urinary concentration, median (range) ([3]; workers in the abrasive industry, post-shift Monday, n = 10, Germany): 3944 (114–42,066) µg/l
Urinary concentration, median (range) ([3]; workers in the abrasive industry, post-shift Thursday, n = 10, Germany): 11,162 (337–51,809) µg/l
Concentration in urine, median [2, 22]: 2.89 µg/L
Concentration in urine, range [2, 22]: 0.6 to 19.4 µg/L
Baseline concentration in urine, total range ([2]; before training, samplings 1 and 2 together): 0.9–10.2 µg/g crea. and 0.87–10.19 µg/g crea.
Urinary peak concentration, median (range) ([2]; firefighters after live fire training, sampling 4, n = 6, Germany): 246.7 (18.2–1084.2) µg/l
Median increase in morning urine after exposure (sampling 9) vs. before (sampling 1) [2]: 12.9 fold
concentration at 6 h ([2]; median): 0.0713 µg/mL
concentration at 6 h ([2]; range): 0.0166 to 0.674 µg/mL
Median increase from baseline (sample 2) to peak excretion [2]: 41 fold
Individual maximum concentration in urine ([2]; post exposure, sampling 4): 380.4 µg/g crea.
Concentration in urine, median [2, 4]: 2.23 µg/g creatinine
Concentration in urine, IQR [2, 5]: 1.43–4.18 µg/g creatinine
Concentration in urine, range [2, 5]: 0.87–10.19 µg/g creatinine
Concentration in urine, median [2, 6]: 3.3 µg/g creatinine and 3.32 µg/g creatinine
Concentration in urine, IQR [2, 7]: 2.03–4.80 µg/g creatinine
Concentration in urine, range [2, 7]: 1.41–9.04 µg/g creatinine
Concentration in urine, median [2, 8]: 31.60 µg/g creatinine
Concentration in urine, IQR [2, 9]: 25.79–52.81 µg/g creatinine
Concentration in urine, range [2, 9]: 10.68–166.80 µg/g creatinine
Concentration in urine, median [2, 10]: 134.2 µg/g creatinine and 134.15 µg/g creatinine
Concentration in urine, IQR [2, 11]: 92.94–164.89 µg/g creatinine
Concentration in urine, range [2, 11]: 43.38–380.43 µg/g creatinine
Concentration in urine, median [2, 12]: 131.46 µg/g creatinine
Concentration in urine, IQR [2, 13]: 104.83–207.75 µg/g creatinine
Concentration in urine, range [2, 13]: 78.66–375.77 µg/g creatinine
Concentration in urine, median [2, 14]: 86.01 µg/g creatinine
Concentration in urine, IQR [2, 15]: 67.60–137.94 µg/g creatinine
Concentration in urine, range [2, 15]: 46.21–284.21 µg/g creatinine
Concentration in urine, median [2, 16]: 51.58 µg/g creatinine
Concentration in urine, IQR [2, 17]: 40.81–76.67 µg/g creatinine
Concentration in urine, range [2, 17]: 21.95–159.57 µg/g creatinine
Concentration in urine, median [2, 18]: 46.02 µg/g creatinine
Concentration in urine, IQR [2, 19]: 30.70–63.89 µg/g creatinine
Concentration in urine, range [2, 19]: 19.82–154.82 µg/g creatinine
Concentration in urine, median [2, 20]: 27.1 µg/g creatinine and 27.08 µg/g creatinine
Concentration in urine, IQR [2, 21]: 20.03–40.28 µg/g creatinine
Concentration in urine, range [2, 21]: 15.69–139.47 µg/g creatinine
